According to US12234230B2, “Substituted benzyl-triazole compounds for Cbl-b inhibition, and further uses thereof” (Nurix Therapeutics, Inc., priority 2019, dated 2025):
Like-named read-outs stand apart in the source and are kept apart here.

What was measured:
[1] = test system: primary human total T-cells; experiment: Primary human total T-cell activation (IL-2 secretion, CD25 surface staining), Biological Example 2; conditions: fold change over baseline; for CD25 staining CD3/CD28 0.3 μM / IL-2 secretion CD3/CD28 0.3 μM: 0.3 μM inhibitor; for CD25 staining CD3/CD28 0.3 μM / IL-2 secretion CD3/CD28 0.3 μM / CD25 staining CD3/CD28 1 μM / IL-2 secretion CD3/CD28 1 μM: anti-CD3 and anti-CD28 co-stimulation; for CD25 staining CD3/CD28 1 μM / IL-2 secretion CD3/CD28 1 μM / CD25 staining CD3 1 μM / IL-2 secretion CD3 1 μM: 1 μM inhibitor; for CD25 staining CD3 1 μM / IL-2 secretion CD3 1 μM / CD25 staining CD3 3 μM / IL-2 secretion CD3 3 μM: anti-CD3 stimulation alone; for CD25 staining CD3 3 μM / IL-2 secretion CD3 3 μM: 3 μM inhibitor
Cbl-b = Cbl-b (Homo sapiens (Human), UniProt Q13191); experiment: Cbl-b displacement assay (Cbl-b inhibition assay), Biological Example 1; format: binding
Sequence of Cbl-b (Q13191 36-427): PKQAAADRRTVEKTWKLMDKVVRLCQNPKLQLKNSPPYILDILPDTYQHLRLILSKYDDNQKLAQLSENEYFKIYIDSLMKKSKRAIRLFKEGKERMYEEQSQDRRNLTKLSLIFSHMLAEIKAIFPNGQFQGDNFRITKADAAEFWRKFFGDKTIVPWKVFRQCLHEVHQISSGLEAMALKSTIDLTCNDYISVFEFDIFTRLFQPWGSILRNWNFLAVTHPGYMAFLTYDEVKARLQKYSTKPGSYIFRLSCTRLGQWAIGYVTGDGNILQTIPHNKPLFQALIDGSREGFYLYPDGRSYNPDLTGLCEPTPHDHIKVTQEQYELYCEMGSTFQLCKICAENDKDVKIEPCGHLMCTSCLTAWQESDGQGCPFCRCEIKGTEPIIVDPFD
Experimental: The ability of candidate compounds to displace a known inhibitor and thereby inhibit Cbl-b activity was measured by monitoring the interaction of Cbl-b with a fluorophore-labeled probe in the presence of the candidate compound.
Following the one hour incubation, the plates were read for TR-FRET signal at 520/620 nm using an Envision plate reader (Perkin Elmer).

[2] = 0.125 nM Cbl-b final concentration (Low), read-out: Cbl-b activity IC50 (Low)
[3] = read-out: IC50 values in the Cbl-b inhibition assay of Biological Example 1
[4] = 0.5 nM Cbl-b final concentration (High), read-out: Cbl-b activity IC50 (High)

Row | IC50 (Cbl-b; [2]) [nM] | IC50 (Cbl-b; [3]) [nM] | IC50 (Cbl-b; [4]) [nM] | SMILES | CD25 staining CD3/CD28 0.3 μM [1] | IL-2 secretion CD3/CD28 0.3 μM [1] | CD25 staining CD3/CD28 1 μM [1] | IL-2 secretion CD3/CD28 1 μM [1] | CD25 staining CD3 1 μM [1] | IL-2 secretion CD3 1 μM [1] | CD25 staining CD3 3 μM [1] | IL-2 secretion CD3 3 μM [1]
1 | < 5 | ≤ 5 |  | C[C@@H]1CN(Cc2cc3c(c(C(F)(F)F)c2)CN(c2cccc([C@H](c4nncn4C)C4CCC4)c2)C3=O)CCC1(F)F [Compound 1, 2-(3-((R)-cyclobutyl(4-methyl-4H-1,2,4-triazol-3-yl)methyl)phenyl)-6-(((R)-4,4-difluoro-3-methylpiperidin-1-yl)methyl)-4-(trifluoromethyl)isoindolin-1-one] | B (B indicates 1.24-1.39 fold) | B (B indicates 20-35 fold) | B (B indicates 1.24-1.39 fold) | B (B indicates 20-35 fold) | A (A indicates >2.5 fold) | A (A indicates >1.1 fold) | A (A indicates >2.5 fold) | A (A indicates >1.1 fold)
2 | < 5 | ≤ 5 |  | C[C@H]1CCCN(Cc2cc3c(c(C(F)(F)F)c2)CN(c2cccc([C@@H](c4nncn4C)C4CCC4)c2)C3=O)C1 [Compound 4, 2-(3-((S)-cyclobutyl(4-methyl-4H-1,2,4-triazol-3-yl)methyl)phenyl)-6-(((S)-3-methylpiperidin-1-yl)methyl)-4-(trifluoromethyl)isoindolin-1-one] |  |  |  |  |  |  |  | 
3 | 20 to 100 | 20 to 100 |  | C[C@@H]1CN(Cc2cc3c(c(C4CC4)n2)CN(c2cccc([C@@H](c4nncn4C)C4CCC4)c2)C3=O)CCC1(F)F [Compound 5, 2-(3-((S)-cyclobutyl(4-methyl-4H-1,2,4-triazol-3-yl)methyl)phenyl)-4-cyclopropyl-6-(((R)-4,4-difluoro-3-methylpiperidin-1-yl)methyl)-2,3-dihydro-1H-pyrrolo[3,4-c]pyridin-1-one] | B (B indicates 1.24-1.39 fold) | C (C indicates <20 fold) | B (B indicates 1.24-1.39 fold) | C (C indicates <20 fold) | C (C indicates <1.5 fold) | C (C indicates <0.70 fold) | C (C indicates <1.5 fold) | C (C indicates <0.70 fold)
4 | 20 to 100 | 20 to 100 |  | C[C@H]1CCCN(Cc2cc3c(c(C4CC4)n2)CN(c2cccc([C@@H](c4nncn4C)C4CCC4)c2)C3=O)C1 [Compound 6, 2-(3-((S)-cyclobutyl(4-methyl-4H-1,2,4-triazol-3-yl)methyl)phenyl)-4-cyclopropyl-6-(((S)-3-methylpiperidin-1-yl)methyl)-2,3-dihydro-1H-pyrrolo[3,4-c]pyridin-1-one] |  |  |  |  |  |  |  | 
5 |  | 5 to 20 | 5 to 20 | Cn1cnnc1[C@@H](c1cccc(N2Cc3c(cccc3C(F)(F)F)C2=O)c1)C1CCC1 [Compound 8, (R)-2-(3-(cyclobutyl(4-methyl-4H-1,2,4-triazol-3-yl)methyl)phenyl)-4-(trifluoromethyl)isoindolin-1-one] |  |  |  |  |  |  |  | 
6 |  |  | > 100 | Cn1cnnc1C1(c2cccc(N3Cc4c(cccc4C(F)(F)F)C3=O)c2)CCCC1 [Compound 11, 2-(3-(1-(4-methyl-4H-1,2,4-triazol-3-yl)cyclopentyl)phenyl)-4-(trifluoromethyl)isoindolin-1-one] |  | C (C indicates <20 fold) |  | C (C indicates <20 fold) | C (C indicates <1.5 fold) |  | C (C indicates <1.5 fold) | 
7 |  |  | > 100 | Cc1cc(C(=O)Nc2cccc([C@H](c3nncn3C)C3CCC3)c2)nc(C2CC2)n1 [Compound 13, (R)—N-(3-(cyclobutyl(4-methyl-4H-1,2,4-triazol-3-yl)methyl)phenyl)-2-cyclopropyl-6-methylpyrimidine-4-carboxamide] |  | C (C indicates <20 fold) |  | C (C indicates <20 fold) | C (C indicates <1.5 fold) |  | C (C indicates <1.5 fold) | 
8 | 20 to 100 | 20 to 100 |  | CC(c1cc2c(c(C(F)(F)F)c1)CN(c1cccc([C@@H](c3nncn3C)C3CCC3)c1)C2=O)N1CCC[C@H](C)C1 (stereo partly drawn) [Compound 16, 2-(3-((S)-cyclobutyl(4-methyl-4H-1,2,4-triazol-3-yl)methyl)phenyl)-6-(1-((S)-3-methylpiperidin-1-yl)ethyl)-4-(trifluoromethyl)isoindolin-1-one] |  | C (C indicates <20 fold) |  | B (B indicates 20-35 fold) | A (A indicates >2.5 fold) | B (B indicates 0.70-1.1 fold) | A (A indicates >2.5 fold) | B (B indicates 0.70-1.1 fold)
9 | 5 to 20 |  |  | CC[C@@H]1CN(Cc2cc3c(c(C(F)(F)F)c2)CN(c2cccc([C@]4(c5nncn5C)C[C@@H](C)C4)c2)C3=O)CCO1 [Compound 28, 6-(((R)-2-ethylmorpholino)methyl)-2-(3-((1s,3S)-3-methyl-1-(4-methyl-4H-1,2,4-triazol-3-yl)cyclobutyl)phenyl)-4-(trifluoromethyl)isoindolin-1-one] |  |  |  |  |  |  |  | 
10 | 5 to 20 |  |  | Cn1cnnc1[C@]1(c2cccc(N3Cc4c(cc(CN5CCO[C@H](CC#N)C5)cc4C(F)(F)F)C3=O)c2)C[C@H](C)C1 [Compound 30, 2-((R)-4-((2-(3-((1s,3S)-3-methyl-1-(4-methyl-4H-1,2,4-triazol-3-yl)cyclobutyl)phenyl)-3-oxo-7-(trifluoromethyl)isoindolin-5-yl)methyl)morpholin-2-yl)acetonitrile] |  |  |  |  |  |  |  | 

Second part, the molecule before the results:

Row | SMILES | IC50 (Cbl-b; [2]) [nM] | IC50 (Cbl-b; [3]) [nM] | IC50 (Cbl-b; [4]) [nM] | CD25 staining CD3/CD28 0.3 μM [1] | IL-2 secretion CD3/CD28 0.3 μM [1] | CD25 staining CD3/CD28 1 μM [1] | IL-2 secretion CD3/CD28 1 μM [1] | CD25 staining CD3 1 μM [1] | IL-2 secretion CD3 1 μM [1] | CD25 staining CD3 3 μM [1] | IL-2 secretion CD3 3 μM [1]
11 | C[C@@H]1CN(Cc2cc3c(c(C(F)(F)F)c2)CN(c2cccc([C@@H](c4nncn4C)C4CCC4)c2)C3=O)CCC1(F)F [Compound 2, 2-(3-((S)-cyclobutyl(4-methyl-4H-1,2,4-triazol-3-yl)methyl)phenyl)-6-(((R)-4,4-difluoro-3-methylpiperidin-1-yl)methyl)-4-(trifluoromethyl)isoindolin-1-one] | > 100 | > 100 |  |  | A (A indicates >35 fold) |  | A (A indicates >35 fold) | A (A indicates >2.5 fold) | A (A indicates >1.1 fold) | A (A indicates >2.5 fold) | B (B indicates 0.70-1.1 fold)
12 | Cn1cnnc1C(c1cccc(N2Cc3c(cccc3C(F)(F)F)C2=O)c1)C1COC1 (stereo not shown) [Compound 7, 2-(3-((4-methyl-4H-1,2,4-triazol-3-yl)(oxetan-3-yl)methyl)phenyl)-4-(trifluoromethyl)isoindolin-1-one] | > 100 | > 100 |  |  |  |  |  |  |  |  | 
13 | Cn1cnnc1[C@H](c1cccc(N2Cc3c(cccc3C(F)(F)F)C2=O)c1)C1CCC1 [Compound 9, (S)-2-(3-(cyclobutyl(4-methyl-4H-1,2,4-triazol-3-yl)methyl)phenyl)-4-(trifluoromethyl)isoindolin-1-one] |  |  | > 100 |  |  |  |  |  |  |  | 
14 | Cn1cnnc1C1(c2cccc(N3Cc4c(cccc4C(F)(F)F)C3=O)c2)CCOC1 (stereo not shown) [Compound 10, 2-(3-(3-(4-methyl-4H-1,2,4-triazol-3-yl)tetrahydrofuran-3-yl)phenyl)-4-(trifluoromethyl)isoindolin-1-one] | > 100 |  |  |  |  |  |  |  |  |  | 
15 | Cc1cc(C(=O)Nc2cccc([C@@H](c3nncn3C)C3CCC3)c2)nc(C2CC2)n1 [Compound 12, (S)—N-(3-(cyclobutyl(4-methyl-4H-1,2,4-triazol-3-yl)methyl)phenyl)-2-cyclopropyl-6-methylpyrimidine-4-carboxamide] |  |  | > 100 |  | C (C indicates <20 fold) |  | C (C indicates <20 fold) | C (C indicates <1.5 fold) |  | C (C indicates <1.5 fold) | 
16 | CC(c1cc2c(c(C(F)(F)F)c1)CN(c1cccc([C@@H](c3nncn3C)C3CCC3)c1)C2=O)N1CCC(F)(F)[C@H](C)C1 (stereo partly drawn) [Compound 14, 2-(3-((S)-cyclobutyl(4-methyl-4H-1,2,4-triazol-3-yl)methyl)phenyl)-6-(1-((R)-4,4-difluoro-3-methylpiperidin-1-yl)ethyl)-4-(trifluoromethyl)isoindolin-1-one] | 20 to 100 | 20 to 100 |  | B (B indicates 1.24-1.39 fold) | C (C indicates <20 fold) |  | C (C indicates <20 fold) | C (C indicates <1.5 fold) | C (C indicates <0.70 fold) | C (C indicates <1.5 fold) | C (C indicates <0.70 fold)
17 | C[C@@H]1CN(Cc2cc3c(c(C(F)(F)F)c2)CN(c2cccc([C@@H](c4nncn4C)C4CCC4)c2)C3=O)CCO1 [Compound 15, 2-(3-((S)-cyclobutyl(4-methyl-4H-1,2,4-triazol-3-yl)methyl)phenyl)-6-(((R)-2-methylmorpholino)methyl)-4-(trifluoromethyl)isoindolin-1-one] | 5 to 20 | 5 to 20 |  | B (B indicates 1.24-1.39 fold) | C (C indicates <20 fold) | B (B indicates 1.24-1.39 fold) | C (C indicates <20 fold) | C (C indicates <1.5 fold) | C (C indicates <0.70 fold) | C (C indicates <1.5 fold) | C (C indicates <0.70 fold)
